{
  "source": "patent US7501434B2",
  "about": "“6-carboxy-normorphinan derivatives, synthesis and uses thereof” (Wyeth, priority 2006, dated 2009)",
  "key": {"[1]": {"target": "Kappa 1 (UniProt P41144)", "type": "binding"}, "[2]": {"target": "T1, human recombinant Mu opioid receptors (Homo sapiens, UniProt P35372)", "T1 construct": "expressed in transfected cells; host or cells: CHO cells", "T1 sequence (P35372 whole entry)": "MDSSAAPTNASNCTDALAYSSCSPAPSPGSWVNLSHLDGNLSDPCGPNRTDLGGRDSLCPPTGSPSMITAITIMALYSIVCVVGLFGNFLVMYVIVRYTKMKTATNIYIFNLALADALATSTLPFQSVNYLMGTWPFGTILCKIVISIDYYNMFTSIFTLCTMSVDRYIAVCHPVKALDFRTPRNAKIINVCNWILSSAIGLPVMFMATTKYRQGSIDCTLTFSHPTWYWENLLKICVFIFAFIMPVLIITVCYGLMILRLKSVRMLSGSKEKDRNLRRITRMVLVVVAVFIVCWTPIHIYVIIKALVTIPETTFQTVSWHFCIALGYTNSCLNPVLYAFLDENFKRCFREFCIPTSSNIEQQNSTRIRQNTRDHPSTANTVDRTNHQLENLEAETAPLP", "assay": "cell-based"}, "[3]": {"assay": "Aqueous solubility", "type": "physicochemical", "conditions": "thermodynamic from solid; pH: 2.2, water", "protocol": ">56 mg/ml (pH: 2.2) by adding certain additive amounts of I-1 to 1 ml of water."}, "[4]": {"target": "Delta 2 (h) (Homo sapiens, UniProt P41143)", "sequence (P41143 whole entry)": "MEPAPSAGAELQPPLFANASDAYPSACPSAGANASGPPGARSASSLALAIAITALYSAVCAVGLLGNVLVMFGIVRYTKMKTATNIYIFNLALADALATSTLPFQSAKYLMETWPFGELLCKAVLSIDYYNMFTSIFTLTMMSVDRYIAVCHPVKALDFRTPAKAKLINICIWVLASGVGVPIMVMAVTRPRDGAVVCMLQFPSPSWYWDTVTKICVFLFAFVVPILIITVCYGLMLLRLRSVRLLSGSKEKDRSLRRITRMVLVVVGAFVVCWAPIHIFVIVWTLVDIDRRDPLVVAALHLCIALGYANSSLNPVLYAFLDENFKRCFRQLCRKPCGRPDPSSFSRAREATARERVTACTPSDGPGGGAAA", "assay": "Neurotransmitter assay (radioligand binding), Delta 2 (h)", "conditions": "radioligand [3H]-Naltrindole"}, "[5]": {"assay": "Partition coefficient determination (1-octanol/water)", "type": "physicochemical", "conditions": "pH: 2.2", "protocol": "The partition coefficient of Compound I-1 was determined by the following method. • 1. 20.131 mg of Compound I-1 was dissolved in 2 mL of water saturated with 1-octanol. • 2. 2 mL of 1-octanol saturated with water was added to the solution from step 1. • 3. The two layers were shaken over night at room temperature. • 4. The two layers were analyzed for the concentration of Compound I-1."}, "[6]": {"assay": "Administration in GI-physiology altered dogs (plasma pharmacokinetics)", "type": "in vivo", "conditions": "male, beagle, dog, po, 50 mg, single 50 mg capsule", "protocol": "A 50 mg capsule formulation of Compound Ia was screened in gastrointestinal (GI) physiology regulated male beagle dogs. Atropine (˜20 μg/kg; IV) and pentagastrin (˜10 μg/kg; IM) were administered 15 minutes prior to formulation administration and another dose of pentagastrin (10 μg/kg; IM) was administered 30 minutes post dose. Atropine slows down canine GI motility and pentagastrin decreases pH resulting in GI conditions almost similar to that of humans. The capsules ([…]) via oral administration following an overnight fast and blood samples were drawn at 0 (predose), 0.5, 1, 2, 3, 4, 6, 8, 12, 24 and 48 hours after dosing; plasma was separated and assayed for Compound Ia content. All dogs were fed 4 hours post dose.\n50 mg Compound Ia capsule contained neat 51.5 mg of Compound Ia 97% purity (50 mg of Compound Ia), filled in #AA-DB HGC Swedish orange capsule.\nBioanalytical results were received and a preliminary PK assessment was performed. Individual dog plasma Compound Ia concentration-time profiles were subjected to noncompartmental pharmacokinetic analyses (WinNonlin, Model 200). The following pharmacokinetic parameters were determined for each dog, and descriptive statistics were calculated: AUC, Cmax, and tmax."}, "[7]": {"target": "Mu (h) (Homo sapiens, UniProt P35372)", "sequence (P35372 whole entry)": "as the sequence (P35372 whole entry) above", "type": "binding"}, "[8]": {"target": "μ opioid (Homo sapiens, UniProt P35372)", "sequence (P35372 whole entry)": "as above", "conditions": "from WO2006/127898 and WO2006/127899; cited from earlier work"}, "[9]": {"conditions": "white crystalline powder from Mallinckrodt Pharmaceuticals; cited from earlier work"}},
  "data": [
    {"molecule": "C[N+]1(CC2CC2)CC[C@]23c4c5ccc(O)c4O[C@H]2[C@](O)(C(=O)O)C[C@@]3(O)[C@H]1C5", "note": "(stereo partly drawn) [Compound Ia, (3R,4R,4aS,6aR,11bS)-6-carboxy-3-(cyclopropylmethyl)-4-a,6,8-trihydroxy-3-methyl-1,2,3,4,4a,5,6,6a-octahydro-4,11-methano[1]benzofuro[3′,2′:2,3]cyclopenta[1,2-c]pyridin-3-ium]", "values": [
      {"measurement": "Percent Inhibition (Average; N = 2)", "setting": "[1]", "value": 82.09, "unit": "%"},
      {"measurement": "IC50", "setting": "[2]", "value": 0.17, "unit": "µM"},
      {"measurement": "solubility", "setting": "[3]", "value": "> 56", "unit": "mg/mL"},
      {"measurement": "Percent Inhibition (Average; N = 2)", "setting": "[4]", "value": 44.47, "unit": "%"},
      {"measurement": "logP", "setting": "[5]", "value": -2.15},
      {"measurement": "AUC(0-inf)", "setting": "[6]; Dog 1, PO", "value": 4690, "unit": "ng·h/mL"},
      {"measurement": "AUC(0-t)", "setting": "[6]; Dog 1, PO", "value": 4630, "unit": "ng·h/mL"},
      {"measurement": "Cmax", "setting": "[6]; Dog 1, PO", "value": 825, "unit": "ng/mL"},
      {"measurement": "Tmax", "setting": "[6]; Dog 1, PO", "value": 2, "unit": "h"},
      {"measurement": "half-life", "setting": "[6]; Dog 1, PO", "value": 3.9, "unit": "h"},
      {"measurement": "AUC(0-inf)", "setting": "[6]; Dog 2, PO", "value": 7740, "unit": "ng·h/mL"},
      {"measurement": "AUC(0-t)", "setting": "[6]; Dog 2, PO", "value": 7720, "unit": "ng·h/mL"},
      {"measurement": "Cmax", "setting": "[6]; Dog 2, PO", "value": 1670, "unit": "ng/mL"},
      {"measurement": "Tmax", "setting": "[6]; Dog 2, PO", "value": 3, "unit": "h"},
      {"measurement": "half-life", "setting": "[6]; Dog 2, PO", "value": 2.8, "unit": "h"},
      {"measurement": "AUC(0-inf)", "setting": "[6]; Dog 3, PO", "value": 6220, "unit": "ng·h/mL"},
      {"measurement": "AUC(0-t)", "setting": "[6]; Dog 3, PO", "value": 6210, "unit": "ng·h/mL"},
      {"measurement": "Cmax", "setting": "[6]; Dog 3, PO", "value": 1580, "unit": "ng/mL"},
      {"measurement": "Tmax", "setting": "[6]; Dog 3, PO", "value": 1, "unit": "h"},
      {"measurement": "half-life", "setting": "[6]; Dog 3, PO", "value": 1.1, "unit": "h"},
      {"measurement": "AUC(0-inf)", "setting": "[6]; Mean, N 3 dogs", "value": 6220, "unit": "ng·h/mL"},
      {"measurement": "AUC(0-t)", "setting": "[6]; Mean, N 3 dogs", "value": 6190, "unit": "ng·h/mL"},
      {"measurement": "Cmax", "setting": "[6]; Mean, N 3 dogs", "value": 1360, "unit": "ng/mL"},
      {"measurement": "Tmax", "setting": "[6]; Mean, N 3 dogs", "value": 2, "unit": "h"},
      {"measurement": "half-life", "setting": "[6]; Mean, N 3 dogs", "value": 2.6, "unit": "h"},
      {"measurement": "AUC(0-inf)", "setting": "[6]; Median, N 3 dogs", "value": 6220, "unit": "ng·h/mL"},
      {"measurement": "AUC(0-t)", "setting": "[6]; Median, N 3 dogs", "value": 6210, "unit": "ng·h/mL"},
      {"measurement": "Cmax", "setting": "[6]; Median, N 3 dogs", "value": 1580, "unit": "ng/mL"},
      {"measurement": "Tmax", "setting": "[6]; Median, N 3 dogs", "value": 2, "unit": "h"},
      {"measurement": "half-life", "setting": "[6]; Median, N 3 dogs", "value": 2.8, "unit": "h"},
      {"measurement": "Percent Inhibition (Average; N = 2)", "setting": "[7]", "value": 81.62, "unit": "%"}
    ]},
    {"molecule": "C[N+]1(CC2CC2)CC[C@]23c4c5ccc(O)c4O[C@H]2C(=O)CC[C@@]3(O)[C@H]1C5", "note": "(stereo partly shown) [S-methylnaltrexone]", "values": [
      {"measurement": "Activity at μ opioid receptor (agonist/antagonist)", "setting": "[8]", "value": "peripheral μ opioid agonist"}
    ]},
    {"molecule": "C[N+]1(CC2CC2)CC[C@]23c4c5ccc(O)c4O[C@H]2C(=O)CC[C@@]3(O)[C@H]1C5", "note": "(stereo partly shown) [methylnaltrexone]", "values": [
      {"measurement": "Solubility in water", "setting": "[9]", "value": "freely soluble in water"}
    ]},
    {"molecule": "C[N@@+]1(CC2CC2)CC[C@]23c4c5ccc(O)c4O[C@H]2C(=O)CC[C@@]3(O)C1C5", "note": "[R-methylnaltrexone]", "values": [
      {"measurement": "Activity at μ opioid receptor (agonist/antagonist)", "setting": "[8]", "value": "antagonist activity"}
    ]}
  ]
}
